Reference: PMC5228037, “Discovery and Mechanistic Characterization of Selective Inhibitors of H2S-producing Enzyme: 3-Mercaptopyruvate Sulfurtransferase (3MST) Targeting Active-site Cysteine Persulfide” (Scientific Reports, 2017)

Target: T1, recombinant CBS (Rattus norvegicus, UniProt P32232)
T1 construct: GST (N, cleaved yes); made in house; host or cells: E. coli DH5α
T1 sequence (P32232 1-561): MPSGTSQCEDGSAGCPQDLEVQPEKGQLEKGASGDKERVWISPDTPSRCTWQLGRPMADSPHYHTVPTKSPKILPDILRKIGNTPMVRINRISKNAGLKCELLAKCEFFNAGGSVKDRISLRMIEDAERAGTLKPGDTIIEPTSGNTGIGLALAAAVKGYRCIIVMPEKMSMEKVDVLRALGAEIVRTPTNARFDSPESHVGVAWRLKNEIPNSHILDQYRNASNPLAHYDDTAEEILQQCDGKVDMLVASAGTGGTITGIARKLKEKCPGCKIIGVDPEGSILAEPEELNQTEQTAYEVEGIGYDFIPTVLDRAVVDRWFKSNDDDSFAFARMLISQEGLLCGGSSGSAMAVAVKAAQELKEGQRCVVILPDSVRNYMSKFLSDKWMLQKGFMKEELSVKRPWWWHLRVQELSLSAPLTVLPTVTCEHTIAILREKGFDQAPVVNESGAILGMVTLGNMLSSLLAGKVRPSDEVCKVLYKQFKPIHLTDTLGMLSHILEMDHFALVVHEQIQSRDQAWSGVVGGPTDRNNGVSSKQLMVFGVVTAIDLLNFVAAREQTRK
Test: Inhibitory activity towards purified CBS by gas chromatography
Type: biochemical
Conditions: 100 μM compound, 10 mM L-cysteine and DL-homocysteine
Description: Figure 2 Selectivity assessment of hit compounds for 3MST over other H2S/polysulfides-producing enzymes and rhodanese. (a) 3MST-Inhibitory activity of hit compounds at 10 and 100 μM in cell lysate of 3MST-expressing HEK293 cells. 100 μM 3MP and 100 μM DTT were added to the solution containing 0.1% DMSO as a cosolvent, and the mixture was incubated at 37 °C for 15 min. H2S production was measured by gas chromatography. All data are presented as the mean ± S.D. (100 μM: n = 3 or 4; 10 μM: n = 3). (b) Selectivity assessment of hit compounds at 100 μM towards CBS and CSE. Only DMSO was added to the control sample instead of DMSO solution containing hit compounds. H2S production was monitored by gas chromatography. All data are presented as the mean (n = 3). (c) Detection method for rhodanese activity (Sörbo method). (d) Selectivity assessment of hit compounds towards rhodanese. The results are mean ± S.D. (n = 4, three times). These values were determined based upon the absorbance of [Fe(SCN)3] at 460 nm (Sӧrbo method). Bovine rhodanese 1.3–1.7 units/mL, substrate: 52 mM Na2S2O3, 50 mM KCN, 0.004% (w/v) BSA, 100 μM compound and DMSO 1% (v/v) in 88 mM potassium phosphate buffer (pH 8.6) at room temperature for 5 min incubation. (e) Fluorescence confocal microscopic images of live COS7 cells transfected with 3MST or an empty vector[9] as a control. Cells were incubated with 50 μM SSP4, a fluorescent probe for sulfane sulfur, and 10 μM, 1 μM, 0.5 μM, 0.1 or 0 μM compound 3 in DMEM containing 0.6% DMSO for 30 min, then washed with HBSS and placed in fresh DMEM with 0‒10 μM compound 3 (Pre). 500 μM 3MP was added to the cells and the cells were incubated for 10 min (10 min). (f) Graphic representation of (e). F/F0 was calculated by dividing the fluorescence intensity of cells after addition of 500 μM 3MP (10 min) by that of cells before addition of 500 μM 3MP (Pre), then the mean F/F0 was determined from 5 cells. All data represent the mean ± standard error of the mean (SEM) of three experiments.
GST-tagged rat CSE-HA or rat CBS-HA was expressed in E. coli DH5α as follows. E. coli DH5α transformed with the pGEX-rCSE-HA or pGEX-rCBS-HA plasmid was cultured overnight in LB medium containing 100 μg/mL ampicillin (and 0.3 mM 5-aminolevulinic acid, for CBS) at 37 °C, and the 120 mL culture was inoculated into 2400 mL of LB medium. Further growth of the culture was performed at 37 °C with vigorous shaking until OD600 reached 0.8. IPTG was added to the E. coli DH5α culture at a final concentration of 0.1 mM and incubation was continued at 18 °C. […]

Row | Structure (SMILES) | inhibition at 100 µM (read-out: Inhibition of recombinant CBS enzymatic activity (H2S production)) [%] | Inhibition of recombinant CBS enzymatic activity (H2S production)
1 | NC(=O)c1ccsc1NC(=O)CSc1nc2ccccc2c(=O)[nH]1 [compound 1] | ~25 | 
2 | Cc1sc2nc(SCC(=O)c3ccc(O)cc3O)[nH]c(=O)c2c1C [compound 2] |  | enhanced H2S production
3 | Cc1cc(=O)[nH]c(SCC(=O)c2cccc3ccccc23)n1 [compound 3] |  | almost inactive
4 | O=C(O)c1cccc(NS(=O)(=O)c2ccccc2)c1 [compound 5] |  | enhancement of H2S production
